Measurements taken from ChEMBL document CHEMBL2074043, “Investigation of fractions present in the stem bark of Annickia kummeriae on their P-glycoprotein inhibitory pump activity” (Phytother Res, 2004).

Molecular target: ATP-dependent translocase ABCB1 (Homo sapiens, UniProt P08183)
Test: TP_TRANSPORTER: increase in intracellular accumulation of rhodamine 6G in […] cell
Type: functional, cell-based

Sequence of ATP-dependent translocase ABCB1 (P08183 whole entry): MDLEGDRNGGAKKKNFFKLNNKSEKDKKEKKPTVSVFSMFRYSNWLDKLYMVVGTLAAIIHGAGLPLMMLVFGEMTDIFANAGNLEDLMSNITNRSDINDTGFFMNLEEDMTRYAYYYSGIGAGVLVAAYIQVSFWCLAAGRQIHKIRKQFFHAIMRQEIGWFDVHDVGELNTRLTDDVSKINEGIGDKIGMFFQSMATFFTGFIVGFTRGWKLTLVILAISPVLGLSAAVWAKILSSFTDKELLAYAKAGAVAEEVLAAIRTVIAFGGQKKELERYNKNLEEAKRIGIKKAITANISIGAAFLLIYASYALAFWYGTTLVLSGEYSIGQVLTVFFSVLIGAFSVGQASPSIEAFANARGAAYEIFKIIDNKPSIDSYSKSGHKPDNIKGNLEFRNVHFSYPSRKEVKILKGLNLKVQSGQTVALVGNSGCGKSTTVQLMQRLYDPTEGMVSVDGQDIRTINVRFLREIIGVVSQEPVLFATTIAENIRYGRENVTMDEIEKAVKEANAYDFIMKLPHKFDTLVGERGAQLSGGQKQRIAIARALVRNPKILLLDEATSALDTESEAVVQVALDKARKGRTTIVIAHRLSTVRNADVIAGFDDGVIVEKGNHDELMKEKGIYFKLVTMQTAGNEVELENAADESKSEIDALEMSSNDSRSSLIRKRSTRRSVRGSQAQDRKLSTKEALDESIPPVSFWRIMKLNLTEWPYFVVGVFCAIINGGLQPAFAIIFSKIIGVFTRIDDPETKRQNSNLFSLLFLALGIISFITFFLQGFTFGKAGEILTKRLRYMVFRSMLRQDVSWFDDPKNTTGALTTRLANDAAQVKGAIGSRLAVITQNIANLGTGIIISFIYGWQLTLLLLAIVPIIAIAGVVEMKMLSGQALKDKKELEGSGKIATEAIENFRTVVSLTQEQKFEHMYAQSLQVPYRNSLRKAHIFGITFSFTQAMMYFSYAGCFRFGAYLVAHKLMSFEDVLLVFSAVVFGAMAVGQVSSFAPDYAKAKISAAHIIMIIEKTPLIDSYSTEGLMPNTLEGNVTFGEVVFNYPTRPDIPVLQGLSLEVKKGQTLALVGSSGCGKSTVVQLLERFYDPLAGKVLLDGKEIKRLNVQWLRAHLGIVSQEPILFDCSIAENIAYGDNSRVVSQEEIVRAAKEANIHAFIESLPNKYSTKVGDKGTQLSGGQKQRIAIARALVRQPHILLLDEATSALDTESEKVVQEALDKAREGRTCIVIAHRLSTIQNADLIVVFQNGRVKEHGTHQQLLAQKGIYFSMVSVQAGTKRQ

Activity: inhibitor [+]
Substance: STEM BARK OF ANNICKIA KUMMERIAE EXTRACT
